# Source: paper PMC7473988 (Journal of Experimental Pharmacology, 2020)
# Where “and” joins values, the source holds several entries; their conditions need not be identical. Equal values may be shown once. Where a name gives a salt, the structure may show the parent alone.
# How the values were obtained:
# [1] = system: neuronal receptors; details: binding affinity study; cited from earlier work
# [2] = system: 5-HT in rat and mouse PFC; details: cited from earlier work
# [3] = molecular target: T1, SERT (Homo sapiens, UniProt P31645); details: cited from earlier work
# [4] = molecular target: cholinergic muscarinic receptor M4 (Homo sapiens, UniProt P08173)
# [5] = molecular target: His receptor H1 (Homo sapiens, UniProt P35367); test: Cerep Bioprint radioligand binding assay: H1; details: read-out: percent inhibition of the binding of a radiolabeled ligand
# [6] = molecular target: T2, 5-HT2B (Homo sapiens, UniProt P41595); test: Cerep Bioprint radioligand binding assay: 5-HT2B
# [7] = molecular target: monoamine oxidase A (MAO-A) (Rattus norvegicus, UniProt P21396); test: Cerep Bioprint panel assay: MAO-A; details: read-out: percent inhibition (activity towards MAO-A)
# [8] = molecular target: DAT (Homo sapiens, UniProt Q01959); test: Cerep Bioprint radioligand binding assay: DAT; details: read-out: percent inhibition (activity towards DAT)
# [9] = molecular target: ADRα1A (Homo sapiens, UniProt P35348)
# [10] = molecular target: T1, SERT; test: Cerep Bioprint radioligand binding assay: SERT; details: viloxazine 10 µM
# [11] = molecular target: NET (Rattus norvegicus, UniProt Q63380); test: biochemical; details: IC50, inhibition of [3H]-NE uptake (NET), rat hypothalamic synaptosomes
# [12] = molecular target: cholinergic muscarinic receptor M1 (Homo sapiens, UniProt P11229)
# [13] = molecular target: ADRβ2 (Homo sapiens, UniProt P07550); test: cell-based
# [14] = molecular target: adrenergic alpha1B (ADRα1B) receptor (Homo sapiens, UniProt P35368); test: Cerep Bioprint radioligand binding assay: ADRα1B; details: read-out: percent inhibition of the binding of a radiolabeled ligand
# [15] = molecular target: 5-HT6 (Homo sapiens, UniProt P50406)
# [16] = system: GABA transporter (GAT); test: Cerep Bioprint radioligand binding assay: GAT; details: viloxazine 10 µM
# [17] = molecular target: 5-HT1D (Rattus norvegicus, UniProt P28565)
# [18] = molecular target: T3, 5-HT2A (Homo sapiens, UniProt P28223); details: concentrations up to 300 µM
# [19] = molecular target: 5-HT1A (Homo sapiens, UniProt P08908)
# [20] = molecular target: 5-HT1B (Homo sapiens, UniProt P28222)
# [21] = molecular target: muscarinic cholinergic receptor M1 (Homo sapiens, UniProt P11229); test: Cerep Bioprint radioligand binding assay: M1; details: read-out: percent inhibition of the binding of a radiolabeled ligand
# [22] = system: extracellular neurotransmitter levels in the PFC, Acb, and Amg; details: viloxazine 50 mg/kg IP, compared to baseline or vehicle
# [23] = molecular target: ADRα2C (Homo sapiens, UniProt P18825)
# [24] = molecular target: ADRα2A (Homo sapiens, UniProt P08913)
# [25] = molecular target: ADRα2B (Homo sapiens, UniProt P18089)
# [26] = molecular target: DA receptor D2S (Homo sapiens, UniProt P14416); test: Cerep Bioprint radioligand binding assay: D2S; details: read-out: percent inhibition of the binding of a radiolabeled ligand
# [27] = molecular target: dopaminergic receptor D3 (Homo sapiens, UniProt P35462)
# [28] = molecular target: NET (Homo sapiens, UniProt P23975); test: Cerep Bioprint radioligand binding assay: NET; details: read-out: percent inhibition of the binding of a radiolabeled ligand
# [29] = system: 5-HT2C; details: at all concentrations except at 100 mg/day dose
# [30] = molecular target: DA receptor D3 (Homo sapiens, UniProt P35462); test: Cerep Bioprint radioligand binding assay: D3; details: read-out: percent inhibition of the binding of a radiolabeled ligand
# [31] = molecular target: T3, 5-HT2A; test: cell-based
# [32] = molecular target: muscarinic cholinergic receptor M4 (Homo sapiens, UniProt P08173); test: Cerep Bioprint radioligand binding assay: M4; details: read-out: percent inhibition of the binding of a radiolabeled ligand
# [33] = molecular target: histaminic receptor H1 (Homo sapiens, UniProt P35367)
# [34] = molecular target: ADRα1B (Homo sapiens, UniProt P35368); test: cell-based
# [35] = molecular target: dopaminergic receptor D2S (Homo sapiens, UniProt P14416)
# [36] = molecular target: dopaminergic receptor D1 (Homo sapiens, UniProt P21728)
# [37] = molecular target: T4, 5-HT2C (Homo sapiens, UniProt P28335); test: cell-based; details: CHO, read-out: Emax, agonistic activity towards 5-HT2C
# [38] = molecular target: T2, 5-HT2B; test: cell-based
# [39] = molecular target: adrenergic alpha1A (ADRα1A) receptor (Homo sapiens, UniProt P35348); test: Cerep Bioprint radioligand binding assay: ADRα1A; details: read-out: percent inhibition of the binding of a radiolabeled ligand
# [40] = molecular target: His receptor H2 (Homo sapiens, UniProt P25021); test: Cerep Bioprint radioligand binding assay: H2; details: read-out: percent inhibition of the binding of a radiolabeled ligand
# [41] = molecular target: T5, 5-HT7 (Homo sapiens, UniProt P34969); details: concentrations up to 100 µM
# Target sequence in this assay (P34969 whole entry): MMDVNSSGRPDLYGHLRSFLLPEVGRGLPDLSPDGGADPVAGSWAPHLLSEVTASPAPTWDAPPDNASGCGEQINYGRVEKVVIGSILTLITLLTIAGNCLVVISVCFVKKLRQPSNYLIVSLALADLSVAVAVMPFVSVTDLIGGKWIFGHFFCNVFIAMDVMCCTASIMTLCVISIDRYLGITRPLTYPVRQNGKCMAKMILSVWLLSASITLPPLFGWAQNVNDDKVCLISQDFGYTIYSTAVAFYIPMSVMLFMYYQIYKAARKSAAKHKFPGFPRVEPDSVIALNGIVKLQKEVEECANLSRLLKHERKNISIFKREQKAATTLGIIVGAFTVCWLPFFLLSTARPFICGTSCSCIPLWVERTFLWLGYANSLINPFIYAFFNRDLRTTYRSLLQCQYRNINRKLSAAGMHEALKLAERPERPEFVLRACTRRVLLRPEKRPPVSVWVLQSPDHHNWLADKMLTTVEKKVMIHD
# [42] = molecular target: choline transporter (CHT-1) (Homo sapiens, UniProt Q9GZV3); test: Cerep Bioprint radioligand binding assay: CHT-1; details: viloxazine 10 µM
# [43] = molecular target: muscarinic cholinergic receptor M2 (Homo sapiens, UniProt P08172); test: Cerep Bioprint radioligand binding assay: M2; details: read-out: percent inhibition of the binding of a radiolabeled ligand
# [44] = molecular target: T5, 5-HT7; test: cell-based; details: read-out: antagonistic activity at 5-HT7, inhibition
# Target sequence in this assay (P34969 whole entry): as above
# [45] = molecular target: cholinergic muscarinic receptor M3 (Homo sapiens, UniProt P20309)
# [46] = molecular target: T4, 5-HT2C; test: biochemical; details: read-out: percent inhibition of the binding of a radiolabeled ligand
# [47] = system: 5-HT2B; details: at all concentrations, clinical doses of 100, 200, 400, and 600 mg/day
# [48] = system: 5-HT1B; details: viloxazine 10 µM
# [49] = molecular target: T5, 5-HT7; test: Cerep Bioprint radioligand binding assay: 5-HT7; details: read-out: percent inhibition of the binding of a radiolabeled ligand
# Target sequence in this assay (P34969 whole entry, species assumed): as the sequence (P34969 whole entry) above
# [50] = molecular target: ADRβ1 (Homo sapiens, UniProt P08588)
# [51] = molecular target: muscarinic cholinergic receptor M3 (Homo sapiens, UniProt P20309); test: Cerep Bioprint radioligand binding assay: M3; details: read-out: percent inhibition of the binding of a radiolabeled ligand
# [52] = molecular target: DA receptor D1 (Homo sapiens, UniProt P21728); test: Cerep Bioprint radioligand binding assay: D1; details: read-out: percent inhibition of the binding of a radiolabeled ligand
# [53] = system: DA in the striatum; details: freely moving spontaneously hypertensive rats; cited from earlier work
# T2 sequence (P41595 whole entry): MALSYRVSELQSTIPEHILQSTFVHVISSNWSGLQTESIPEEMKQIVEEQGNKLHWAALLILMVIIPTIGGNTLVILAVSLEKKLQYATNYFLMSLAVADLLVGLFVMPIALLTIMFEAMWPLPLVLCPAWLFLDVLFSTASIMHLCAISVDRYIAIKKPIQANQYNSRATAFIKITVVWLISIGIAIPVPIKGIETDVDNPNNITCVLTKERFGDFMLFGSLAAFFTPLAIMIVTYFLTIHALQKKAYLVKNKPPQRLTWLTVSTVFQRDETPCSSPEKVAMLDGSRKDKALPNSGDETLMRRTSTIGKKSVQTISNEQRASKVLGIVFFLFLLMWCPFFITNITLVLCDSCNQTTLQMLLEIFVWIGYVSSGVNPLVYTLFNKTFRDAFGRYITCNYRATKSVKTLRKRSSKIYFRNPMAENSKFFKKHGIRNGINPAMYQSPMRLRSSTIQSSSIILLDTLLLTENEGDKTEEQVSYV
# Sequence of dopaminergic receptor D3 (P35462 whole entry): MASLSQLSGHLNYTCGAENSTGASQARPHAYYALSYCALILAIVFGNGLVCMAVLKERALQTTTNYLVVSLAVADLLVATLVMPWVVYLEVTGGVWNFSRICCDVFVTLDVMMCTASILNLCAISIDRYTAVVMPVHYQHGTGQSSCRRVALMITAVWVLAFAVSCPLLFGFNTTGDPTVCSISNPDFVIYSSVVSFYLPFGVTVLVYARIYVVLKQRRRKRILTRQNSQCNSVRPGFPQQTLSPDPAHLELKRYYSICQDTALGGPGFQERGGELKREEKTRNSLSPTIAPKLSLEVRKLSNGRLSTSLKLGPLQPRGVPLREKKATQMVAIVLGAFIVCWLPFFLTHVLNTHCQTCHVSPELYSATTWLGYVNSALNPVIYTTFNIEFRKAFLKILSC
# T3 sequence (P28223 whole entry, species assumed): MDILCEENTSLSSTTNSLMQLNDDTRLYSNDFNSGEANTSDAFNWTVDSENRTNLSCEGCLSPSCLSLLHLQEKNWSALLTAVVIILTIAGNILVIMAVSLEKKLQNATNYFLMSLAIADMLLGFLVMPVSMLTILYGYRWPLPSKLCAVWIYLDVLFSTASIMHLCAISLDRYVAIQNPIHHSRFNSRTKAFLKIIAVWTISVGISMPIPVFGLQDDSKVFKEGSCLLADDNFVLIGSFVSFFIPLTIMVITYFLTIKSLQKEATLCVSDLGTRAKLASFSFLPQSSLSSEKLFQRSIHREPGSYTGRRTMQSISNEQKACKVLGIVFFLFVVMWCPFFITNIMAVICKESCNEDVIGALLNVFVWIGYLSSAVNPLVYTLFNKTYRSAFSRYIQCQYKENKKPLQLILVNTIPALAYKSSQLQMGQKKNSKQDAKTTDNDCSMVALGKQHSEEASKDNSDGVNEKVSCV
# Sequence of cholinergic muscarinic receptor M4 (P08173 whole entry): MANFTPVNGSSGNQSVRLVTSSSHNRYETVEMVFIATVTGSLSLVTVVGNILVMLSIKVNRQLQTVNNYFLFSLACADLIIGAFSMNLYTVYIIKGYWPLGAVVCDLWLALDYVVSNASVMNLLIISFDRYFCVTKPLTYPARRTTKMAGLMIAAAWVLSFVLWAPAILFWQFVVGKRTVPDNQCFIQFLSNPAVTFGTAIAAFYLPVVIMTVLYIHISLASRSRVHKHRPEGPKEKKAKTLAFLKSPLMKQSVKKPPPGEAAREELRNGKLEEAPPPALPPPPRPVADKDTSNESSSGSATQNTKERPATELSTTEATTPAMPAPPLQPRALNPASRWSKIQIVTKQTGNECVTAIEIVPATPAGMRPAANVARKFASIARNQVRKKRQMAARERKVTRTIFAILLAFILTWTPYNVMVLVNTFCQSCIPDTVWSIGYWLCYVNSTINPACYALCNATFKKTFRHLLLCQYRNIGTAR
# Sequence of dopaminergic receptor D2S (P14416 1-414 isoform P14416-2): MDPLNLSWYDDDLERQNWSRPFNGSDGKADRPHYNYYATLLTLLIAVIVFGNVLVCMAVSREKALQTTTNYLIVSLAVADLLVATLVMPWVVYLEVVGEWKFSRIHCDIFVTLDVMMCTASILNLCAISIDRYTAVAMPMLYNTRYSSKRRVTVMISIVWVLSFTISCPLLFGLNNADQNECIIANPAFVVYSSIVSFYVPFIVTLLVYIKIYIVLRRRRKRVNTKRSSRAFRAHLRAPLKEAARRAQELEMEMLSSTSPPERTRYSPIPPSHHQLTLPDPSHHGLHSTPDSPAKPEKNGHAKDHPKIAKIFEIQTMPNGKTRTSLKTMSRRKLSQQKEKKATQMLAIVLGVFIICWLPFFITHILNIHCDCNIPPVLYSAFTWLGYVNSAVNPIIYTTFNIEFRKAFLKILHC
# Sequence of cholinergic muscarinic receptor M1 (P11229 whole entry): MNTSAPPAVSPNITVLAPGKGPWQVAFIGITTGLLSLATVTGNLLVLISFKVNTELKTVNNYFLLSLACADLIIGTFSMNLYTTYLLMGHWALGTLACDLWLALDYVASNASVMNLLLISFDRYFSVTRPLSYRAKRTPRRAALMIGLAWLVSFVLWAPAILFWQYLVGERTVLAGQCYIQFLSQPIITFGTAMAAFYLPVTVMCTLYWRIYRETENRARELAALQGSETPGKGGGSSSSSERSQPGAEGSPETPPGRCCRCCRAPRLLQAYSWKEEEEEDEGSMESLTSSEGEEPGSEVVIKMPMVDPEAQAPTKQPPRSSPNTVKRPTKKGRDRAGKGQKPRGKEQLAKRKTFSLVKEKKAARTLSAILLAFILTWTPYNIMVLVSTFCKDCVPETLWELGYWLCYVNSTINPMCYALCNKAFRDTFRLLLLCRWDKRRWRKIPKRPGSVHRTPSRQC
# T1 sequence (P31645 whole entry, species assumed): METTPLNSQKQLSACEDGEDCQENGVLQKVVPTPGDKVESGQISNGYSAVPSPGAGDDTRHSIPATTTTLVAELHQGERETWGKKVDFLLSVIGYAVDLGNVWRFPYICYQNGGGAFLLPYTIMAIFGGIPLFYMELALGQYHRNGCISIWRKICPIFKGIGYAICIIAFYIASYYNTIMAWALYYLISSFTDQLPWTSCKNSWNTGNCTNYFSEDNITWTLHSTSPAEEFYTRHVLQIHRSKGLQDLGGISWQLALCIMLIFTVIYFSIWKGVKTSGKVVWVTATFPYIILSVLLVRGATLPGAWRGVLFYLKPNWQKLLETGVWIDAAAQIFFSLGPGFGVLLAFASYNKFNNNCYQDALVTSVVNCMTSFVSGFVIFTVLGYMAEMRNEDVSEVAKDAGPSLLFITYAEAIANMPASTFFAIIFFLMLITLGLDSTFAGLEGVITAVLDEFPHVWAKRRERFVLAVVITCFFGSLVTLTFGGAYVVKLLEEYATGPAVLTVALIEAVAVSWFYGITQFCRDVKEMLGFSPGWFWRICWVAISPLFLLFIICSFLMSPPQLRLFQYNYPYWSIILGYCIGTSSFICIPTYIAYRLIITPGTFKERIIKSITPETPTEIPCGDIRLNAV
# T4 sequence (P28335 33-458): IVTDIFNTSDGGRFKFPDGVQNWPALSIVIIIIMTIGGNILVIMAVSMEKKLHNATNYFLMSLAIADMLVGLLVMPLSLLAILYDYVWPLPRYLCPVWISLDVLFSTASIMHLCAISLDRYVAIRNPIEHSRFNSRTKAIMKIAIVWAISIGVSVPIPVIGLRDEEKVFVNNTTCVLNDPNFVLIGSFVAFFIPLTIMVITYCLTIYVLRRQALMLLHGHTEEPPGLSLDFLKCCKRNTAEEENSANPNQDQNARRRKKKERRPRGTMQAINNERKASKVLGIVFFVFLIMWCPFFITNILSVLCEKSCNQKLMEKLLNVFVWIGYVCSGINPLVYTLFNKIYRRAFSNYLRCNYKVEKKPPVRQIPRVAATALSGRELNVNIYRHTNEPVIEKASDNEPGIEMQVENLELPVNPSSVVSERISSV
# Sequence of dopaminergic receptor D1 (P21728 whole entry): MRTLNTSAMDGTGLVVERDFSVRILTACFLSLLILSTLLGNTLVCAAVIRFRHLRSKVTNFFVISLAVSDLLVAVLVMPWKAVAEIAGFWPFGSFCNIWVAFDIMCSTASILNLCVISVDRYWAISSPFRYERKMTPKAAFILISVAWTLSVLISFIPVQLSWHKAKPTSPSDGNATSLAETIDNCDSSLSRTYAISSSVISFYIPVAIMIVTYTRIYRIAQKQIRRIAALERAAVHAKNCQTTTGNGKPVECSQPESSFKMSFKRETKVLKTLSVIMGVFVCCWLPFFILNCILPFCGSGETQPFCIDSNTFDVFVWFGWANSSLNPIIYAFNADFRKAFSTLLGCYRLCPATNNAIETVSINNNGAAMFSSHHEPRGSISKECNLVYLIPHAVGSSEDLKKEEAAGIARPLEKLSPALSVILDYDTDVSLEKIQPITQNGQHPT
# Sequence of DA receptor D3 (P35462 whole entry): as the sequence (P35462 whole entry) above
# Sequence of muscarinic cholinergic receptor M4 (P08173 whole entry): as the sequence (P08173 whole entry) above
# Sequence of DA receptor D2S (P14416 1-414 isoform P14416-2): as the sequence (P14416 1-414 isoform P14416-2) above
# Sequence of muscarinic cholinergic receptor M1 (P11229 whole entry): as the sequence (P11229 whole entry) above
smiles,measurement,setting,value
"CNCC[C@@H](Oc1ccccc1C)c1ccccc1 [Atomoxetine, atomoxetine]",affinity for neuronal receptors,[1],does not possess appreciable affinity
same,effect on 5-HT in rat and mouse PFC by microdialysis,[2],not found to functionally increase 5-HT
same,SERT occupancy,[3],> 85%
"CCOc1ccccc1OCC1CNCCO1 (centres unmarked) [Viloxazine, Viloxazine hydrochloride]",antagonistic activity towards M4,[4],either very weak (IC50 > 150 µM) or no antagonistic activity
same,agonistic activity towards M4,[4]; concentrations up to 300 µM,no significant agonistic activity
same,inhibition at 10 µM,[5],< 25%
same,Ki,"[6]; Ki for 5-HT2B, constant of binding used for receptor occupancy",6.4 µM
same,inhibition at 10 µM,[6]; read-out: percent inhibition of the binding of a radiolabeled ligand,> 50%
same,inhibition at 10 µM,[7],~10%
same,inhibition at 10 µM,[8],~10%
same,agonistic or antagonistic activity towards ADRα1A,[9],either very weak (IC50 > 150 µM) or no significant agonistic or antagonistic activity
same,binding to SERT,[10],negligible binding
same,IC50,[11],260 nM and ~300 nM
same,antagonistic activity towards M1,[12],either very weak (IC50 > 150 µM) or no antagonistic activity
same,agonistic activity towards M1,[12]; concentrations up to 300 µM,no significant agonistic activity
same,IC50,[13],68 µM
same,inhibition at 10 µM,[14],> 50%
same,agonistic or antagonistic activity towards 5-HT6,[15],did not show any significant agonistic or antagonistic activity
same,binding to the GABA transporter (GAT),[16],negligible binding
same,agonistic or antagonistic activity towards 5-HT1D,[17],did not show any significant agonistic or antagonistic activity
same,agonistic effect at 5-HT2A,[18],no agonistic effect
same,agonistic or antagonistic activity towards 5-HT1A,[19],did not show any significant agonistic or antagonistic activity
same,agonistic or antagonistic activity towards 5-HT1B,[20],did not show any significant agonistic or antagonistic activity
same,inhibition at 10 µM,[21],< 25%
same,change in extracellular level of ACh,[22],No significant changes
same,change in extracellular level of GABA,[22],No significant changes
same,change in extracellular level of Glu,[22],No significant changes
same,change in extracellular level of His,[22],No significant changes
same,agonistic or antagonistic activity towards ADRα2C,[23],either very weak (IC50 > 150 µM) or no significant agonistic or antagonistic activity
same,agonistic or antagonistic activity towards ADRα2A,[24],either very weak (IC50 > 150 µM) or no significant agonistic or antagonistic activity
same,agonistic or antagonistic activity towards ADRα2B,[25],either very weak (IC50 > 150 µM) or no significant agonistic or antagonistic activity
same,inhibition at 10 µM,[26],< 25%
same,antagonistic activity towards D3,[27],either very weak (IC50 > 150 µM) or no antagonistic activity
same,agonistic activity towards D3,[27]; concentrations up to 300 µM,no significant agonistic activity
same,inhibition at 10 µM,[28],> 50%
same,calculated 5-HT2C occupancy at clinical doses,[29],higher than 80%
same,inhibition at 10 µM,[30],< 25%
same,IC50,[31],> 300 µM
same,inhibition at 10 µM,[32],< 25%
same,antagonistic activity towards H1,[33],either very weak (IC50 > 150 µM) or no antagonistic activity
same,agonistic activity towards H1,[33]; concentrations up to 300 µM,no significant agonistic activity
same,IC50,[34],93 µM
same,antagonistic activity towards D2S,[35],either very weak (IC50 > 150 µM) or no antagonistic activity
same,agonistic activity towards D2S,[35]; concentrations up to 300 µM,no significant agonistic activity
same,antagonistic activity towards D1,[36],either very weak (IC50 > 150 µM) or no antagonistic activity
same,agonistic activity towards D1,[36]; concentrations up to 300 µM,no significant agonistic activity
same,Emax,[37],78.6%
same,IC50,[38],27 µM
same,inhibition at 10 µM,[39],> 50%
same,inhibition at 10 µM,[40],< 25%
same,agonistic activity at 5-HT7,[41],no agonistic activity
same,binding to the choline transporter (CHT-1),[42],negligible binding
same,inhibition at 10 µM,[43],< 25%
same,inhibition at 100 µM,[44],52%
same,antagonistic activity towards M3,[45],either very weak (IC50 > 150 µM) or no antagonistic activity
same,agonistic activity towards M3,[45]; concentrations up to 300 µM,no significant agonistic activity
same,inhibition at 10 µM,[46],> 50%
same,calculated 5-HT2B occupancy at clinical doses,[47],higher than 80%
same,percent inhibition of the binding of a radiolabeled ligand,[48],> 50%
same,inhibition at 10 µM,[49],> 50%
same,agonistic or antagonistic activity towards ADRβ1,[50],either very weak (IC50 > 150 µM) or no significant agonistic or antagonistic activity
same,inhibition at 10 µM,[51],< 25%
same,inhibition at 10 µM,[52],< 25%
C[C@H](N)Cc1ccccc1 [d-amphetamine],increase of DA from the baseline level in the striatum,[53],700%
C[C@@H](N)Cc1ccccc1 [l-amphetamine],increase of DA from the baseline level in the striatum,[53],"1,200%"
